Measurements as given in patent publication US20040241648A1, “Phosphoribosyl pyrophosphate synthetase 1as herbicidal target” (priority 2000, published 2004).

Molecular target: T1, Arabidopsis thaliana 5-phosphoribosyl-1-pyrophosphate synthetase 1 (Arabidopsis thaliana, UniProt Q42581)
T1 construct: His-tag (from vector pFastBacHTb); made in house; host or cells: Sf21 insect cells (recombinant baculovirus, pFASTBAC HTb-AtPrs1)
T1 sequence (Q42581 50-403): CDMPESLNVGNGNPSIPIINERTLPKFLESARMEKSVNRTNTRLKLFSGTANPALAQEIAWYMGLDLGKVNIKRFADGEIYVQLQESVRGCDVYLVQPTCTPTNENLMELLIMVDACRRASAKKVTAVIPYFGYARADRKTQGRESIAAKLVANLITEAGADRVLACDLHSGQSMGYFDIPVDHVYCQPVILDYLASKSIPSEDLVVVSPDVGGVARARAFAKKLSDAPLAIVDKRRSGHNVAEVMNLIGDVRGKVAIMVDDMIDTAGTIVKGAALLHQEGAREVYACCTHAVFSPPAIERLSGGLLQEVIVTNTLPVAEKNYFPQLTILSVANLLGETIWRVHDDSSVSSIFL
Assay: 5-Phosphoribosyl-1-pyrophosphate synthetase 1 assay system (photometric, coupled enzyme, drop in NADH at 340 nm)
Format: biochemical
Settings: 0.5-5 mM inhibitor, recombinant enzyme from Sf21 insect cells, 18 μg total protein
From the text: To obtain active Arabidopsis thaliana 5-phosphoribosyl-1-pyrophosphate synthetase 1 for high-throughput screening methods, the Arabidopsis thaliana Prs1 fragment is obtained from vector pGEM-T AtPrs1 (FIG. 2) using the restriction enzymes BamHI and EcoRI (cleavage sites inserted via primers RBPRPP3 and RBPRPP4) and cloned into the identically cleaved transfer vector pFastBacHTb (GibcoBRL). The resulting construct pFASTBAC HTb-AtPrs1 is used in accordance with the manufacturer's instructions (GibcoBRL) for generating recombinant Baculovirus. This virus is employed in accordance with the manufacturer's instructions (GibcoBRL) for infecting Sf21 insect cells in order to generate active 5-phosphoribosyl-1-pyrophosphate synthetase 1 enzyme. The specific enzymatic phosphoribosyl-pyrophosphate synthetase 1 activity is measured photometrically after the cells have been sonicated. The following components are employed per 90 μl batch: […]
After the cells had been sonicated in lysis buffer (50 mM NaH2PO4, 300 mM NaCl, pH 7.8), 18 μg of total protein are employed. […] What is measured is the drop in NADH at 340 nm.

Nc1ncnc2c1ncn2[C@@H]1O[C@H](COP(=O)(O)OP(=O)(O)OP(=O)(O)O)C[C@H]1O [cordycepin-5′-triphosphate]
inhibition of the enzymatic activity of the plant 5-phosphoribosyl-1-pyrophosphate synthetase 1: inhibits the enzymatic activity
